Assay: Surface tension of dispersing agent at 25°C by Wilhelmy method (Physical property 1-5)
Format: physicochemical
Settings: aqueous solution of 0.1% by mass of the dispersing agent
Procedure: The surface tension may be determined by the following method, for example. An anionic dispersion agent is diluted with water to prepare an aqueous solution consisting of: 0.1% by mass of the anionic dispersion agent, relative to the total mass of the aqueous solution; and water. Then, the aqueous solution was used to measure the surface tension at 25°C by Wilhelmy method (which may be referred to as plate method or vertical plate method). Specifically, when a plate that is a measuring unit makes contact with the surface of the aqueous solution, the aqueous solution wets the plate upwards. At the time, the surface tension acts along the perimeter of the plate, and the force that pulls the plate into the aqueous solution generates. The pulling force F (force that acts on the plate, measuring force) is read, and the surface tension r is determined by the following formula. In the formula, L represents the perimeter (m) of the plate, and θ represents the contact angle of the plate and the aqueous solution. r = F/(L×cosθ) [formula]
The surface tension may be measured using a commercially available measurement device, such as static surface tension measurement system (manufactured by DKSH Japan, under the model number of TD 1C or TD 3).
Each dispersing agent used in the examples and comparative examples was diluted with water to prepare an aqueous solution of the dispersing agent consisting of: 0.1% by mass of the anionic dispersion agent, relative to the total mass of the aqueous solution; and water. Then, the resultant aqueous solution of the dispersing agent was used to measure the surface tension at 25°C by Wilhelmy method.

Row | Compound | surface tension at 25°C [mN/m] | surface tension at 25°C (listed as compound (II-1)) [mN/m]
1 | CCCCC(CC)COCCOCCOP(=O)([O-])O.[Na+] [Example D-4, Polyoxyalkylene alkylether phosphoric acid ester] | 30.7 | 
2 | Ammonium polyoxyethylene alkylether sulfate [Example D-6] | 38.8 | 30.7

Source: patent EP3995521A1, “BLOCKED POLYISOCYANATE COMPOSITION, HYDROPHILIC POLYISOCYANATE COMPOSITION, RESIN COMPOSITION, RESIN FILM AND LAMINATED BODY” (Asahi Kasei Kabushiki Kaisha, priority 2019, dated 2021)
